# How the values were obtained:
# [1] = system: PMPMEase; conditions: cited from earlier work; for concentrations that inhibit PMPMEase: concentration range given in words only
# [2] = system: PMPMEase; experiment: Inhibition of PMPMEase by drugs, curcumin, fatty acids and prostaglandins; assay type: biochemical; conditions: relative to arachidonic acid (AA)
SMILES,concentrations that inhibit PMPMEase [1],also measured
CCCCC/C=C\C/C=C\C/C=C\C/C=C\CCCC(=O)O [arachidonic acid],micromolar concentrations,
CCCCC[C@H](O)/C=C/[C@H]1[C@H](O)CC(=O)[C@@H]1C/C=C\CCCC(=O)O [PGE2],,inhibition of PMPMEase at 1 mM ([1]; 1 mM): did not inhibit
CC/C(=C(\c1ccccc1)c1ccc(OCCN(C)C)cc1)c1ccccc1 [tamoxifen],millimolar concentrations,
O=P1(N(CCCl)CCCl)NCCCO1 (stereo not drawn) [cyclophosphamide],millimolar concentrations,
COc1cc(/C=C/C(=O)CC(=O)/C=C/c2ccc(O)c(OC)c2)ccc1O [curcumin],micromolar concentrations,
CCCCC[C@H](O)/C=C/[C@H]1C=CC(=O)[C@@H]1C/C=C\CCCC(=O)O [Prostaglandin (PG) A2],,fold less potent than AA as PMPMEase inhibitor [2]: 63 fold
